Data as given in patent US20250287945A1, “COMPOSITIONS FOR FUNGAL CONTROL AND RELATED METHODS” (priority 2021, published 2025).

Key:
[1] = tested on: Zymoseptoria tritici; type: cell-based
[2] = tested on: Fusarium graminearum; type: cell-based; settings: 22 hours incubation; modified RPMI medium, 25 degrees Celsius; concentration not given
[3] = tested on: Phytophthora infestans; type: cell-based; settings: 7 days incubation; modified RPMI medium, 25 degrees Celsius; concentration not given
[4] = tested on: Fusarium culmorum; type: cell-based
[5] = tested on: Nicotiana benthamiana leaves; test: Phytotoxicity at the treatment site on detached leaves; type: in vivo; settings: 275 micromolar in 50% ethanol, 100 microliters on leaf quadrant
[6] = tested on: Botrytis cinarea (strain CBS 261.71); test: Botrytis viability colorimetric assay (PrestoBlue resazurin); type: cell-based, Botrytis cinerea; settings: Botrytis, CBS261; 375 micromolar; four replicates; read-out: Percent Inhibition (Botrytis), Mean
[7] = tested on: Fusarium conidial suspension; test: Fusarium viability colorimetric assay (PrestoBlue resazurin); type: cell-based; settings: four replicates, protocol and peptides as third experiment (175 and 375 micromolar), concentration not given
Procedure: A Fusarium conidial suspension was prepared from a 7-day culture of Fusarium biomass grown on potato dextrose agar for 7 days, and quantified by hemocytometer, as described in Example 4. Solutions of fenpiclonil (Millipore Sigma, Cat. no. 36532) and of the individual peptides were prepared in 50% (w/v) ethanol in water, and tested using a PrestoBlue™ (resazurin) viability colorimetric assay as described in Example 4.
The Fusarium conidial suspension, peptide or control treatment solution, and potato dextrose broth (Alpha Biosciences, catalogue no. P16-126) were added to each well of a 96-well plate to obtain the desired treatment concentration and 1×10^6 conidia/mL in a final volume of 150 microliters per well. The plates were covered and incubated at 30° C. for 18 hours and 200 rpm. Fifteen microliters of PrestoBlue™ Cell Viability Reagent (Thermofisher Scientific, Cat no. A13262) were added to each well, and the plate was further incubated before measuring fluorescence at 590 nm emission with excitation at 560 nm using a spectrophotometer (BioTek Synergy H1 Microplate Reader, Fischer Scientific, Cat. no. 11-120-533).

Molecule	inhibition relative to a control [1]	inhibition relative to a control [2]	inhibition relative to a control [3]	inhibition relative to a control [4]	phytotoxicity (tissue necrosis at the treatment site) [5]	inhibition at 375 µM [6]	Percent Inhibition (Fusarium), Experiment 4, Mean ([7]; Experiment 4)	Percent Inhibition (Fusarium), Experiment 5, Mean ([7]; Experiment 5)
WHWLQLKPGQPMYRRRRRRRR [SEQ ID NO: 2240]	≥ 50%	≥ 50%	≥ 50%	≥ 50%	–	–	–	–
N#Cc1c[nH]cc1-c1cccc(Cl)c1Cl [Fenpiclonil, 4-(2,3-dichlorophenyl)-1H-pyrrole-3-carbonitrile, reference compound]	–	–	–	–	phytotoxic	75.8%	82.25%	79.19%
